For orientation: melting point means the temperature, or range, at which the solid turns liquid.

The values that follow come from US6765014B1, “1-Acyl-7-nitroindoline derivatives, their preparation and their use as photocleavable precursors” (Medical Research Council, priority 1999, dated 2004).

One data set deals with glutamate ion channels. The data set can be described thus: Whole-cell patch clamp of cultured rat cerebellar granule neurones, with and without flash photolysis. In kind it is cell-based. How it is done:
The caged L-glutamate reagent 10 was tested in primary cultures of rat cerebellar granule neurones for its pharmacological actions and ability to effect photolytic activation of glutamate ion channels. All electrophysiological experiments were performed in Mg^2+-free mammalian Ringer's solution containing 100 μM glycine. Cells were voltage clamped at −65 mV with whole-cell patch clamp (17) and the glutamate sensitivity was established by responses to 20 ms pulses of L-glutamate, applied at a frequency of 0.25 Hz by iontophoresis from a 1-μm tipped glass pipette. […] The latter most likely arises from glutamate diffusion away from the photolyzed region. The time course of the initial decline may represent desensitization of non-NMDA glutamate channels.
During the slow decline there was a clear increase in the low frequency noise of the glutamate-activated current compared to baseline, consistent with gating of glutamate-activated ion channels.
On the technique in general: Patch clamp records ionic current or voltage across a cell membrane.

The nature of data set [1]: Photolysis and product analysis (HPLC and quantitative amino acid analysis). The class given is physicochemical. As to conditions: for Extent of photolysis (conversion): 0.5 mM, 25 mM ammonium phosphate pH 7.0, 3 min mercury arc lamp; for Stoichiometry of effector release upon photolysis: quantitative amino acid analysis of part-photolyzed solutions; for Measured concentration of glutamate as % of value calculated from extent of photolysis: 25 mM ammonium phosphate pH 7.0 ± 1 mM dithiothreitol. The method, then:
Separate solutions of 10 (each 0.50 mM) in 25 mM ammonium phosphate, pH 7.0±1 mM dithiothreitol were irradiated in a 1-mm path length cell for 3 min using light from a mercury arc lamp which passed through Hoya 340 and Schott WG 305 filters before illuminating the cell. The extent of photolysis was determined by reverse-phase HPLC (mobile phase 25 mM Na phosphate, pH 6.0+10% MeOH, 1.5 ml/min). Quantification was based on peak heights compared to those of unphotolyzed controls. Aliquots of the photolyzed solutions were also subjected to quantitative amino acid analysis (see General Procedures).
Photolysis and product analysis for compound 21. A solution (0.5 mM) of 21 in 25 mM ammonium phosphate, pH 7.0 was irradiated as described for compound 10 and the photolyzed solution was quantified by reverse-phase HPLC and amino acid analysis.

A short description of data set [2]: Relative photolysis efficiencies of 8 and 11 (xenon arc lamp, HPLC). In kind it is physicochemical. The method, then: Relative photolysis efficiencies of 8 and 11. A solution containing both 8 and 11 (each 0.5 mM) in 25 mM Na phosphate, pH 7.0 was irradiated in a 1-mm path length cell using light from a 100 W xenon arc lamp which passed through Hoya 340 and Schott WG 305 filters before. illuminating the cell. The extent of photolysis of each compound was determined by reverse-phase HPLC analysis (mobile phase 10 mM Na phosphate, pH 6.0+50% MeOH, 1.5 mL/min). Retention times for 8 and 11 were 3.8 and 7.8 min respectively. After 2 min irradiation, the extents of conversion for compounds 8 and 11 were 40 and 16% respectively.
Upon comparative photolysis of the 1-glutaryl derivatives 8 and 11 in aqueous solutions at pH 7 and without excluding atmospheric oxygen, the bromo compound 11 was indeed converted ˜2.5-fold less efficiently than 8. Photolysis of 8 proceeded cleanly, as shown by an isosbestic point at 365 nm in spectra of a solution photolyzed for increasing times to at least 65% conversion, but the photoproduct of the protecting group was not the 7-nitroindoline 12 (λmax 450 nm) expected from the previous report (6a). […] Further confirmation of the presence of a nitroso group was that treatment of 13, R=CH2CO2Me) with a thiol readily abolished the 412 nm chromophore, presumably by conversion to the corresponding hydroxylamine (11, 12). […] In control experiments, photolysis of the glutaryl compound 8 in CH2Cl2-dioxane-H2O (2:3:0.05) cleanly gave the expected (6a) nitroindoline 12.

Data set [3] can be described thus: Comparative photolysis in aqueous solution (Rayonet photochemical reactor, UV-VIS). The class given is physicochemical. As to conditions: for Time required for half-maximal photolysis: pH 7 (5:95), 16×350 nm lamps; for Photolysis upon irradiation: near-UV light, UV-visible spectrum of irradiated solution, conditions for 24 not given. How it is done:
Comparative photolysis of methyl 1-acetyl-7-nitroindoline-5-acetate 16 and 1-acetyl-4-methoxy-7-nitroindoline 25 in aqueous solution. Separate 1 ml samples of each compound [0.0896 mM in EtOH-25 mM Na phosphate, pH 7 (5:95)] in 1 cm path length optical cells were photolysed simultaneously for 0, 0.25, 0.5, 1, 2, 4, 6 and 8 min in a Rayonet photochemical reactor (16×350 nm lamps) and UV-VIS spectra were recorded after each irradiation period. FIGS. 4 and 5 show the time course of photolysis for 16 and 25 respectively.
Comparative photolysis of 1-acetyl-4-methoxy-7-nitroindoline 25 and 1-acetyl-4-methoxy-[…] 30 in aqueous solution. Separate 1 ml samples of each compound [0.0748 mM in EtOH-25 mM Na phosphate, pH 7 (5:95)] in 1 cm path length optical cells were photolysed simultaneously for 0, 0.25, 0.5, 1, 2, 4 and 6 min in a Rayonet photochemical reactor (16×350 nm lamps) and UV-VIS spectra were recorded after each irradiation period. FIGS. 6 and 7 show the time course of photolysis for 25 and 30 respectively.
With the relative merits of the substitution pattern on the aromatic ring established, the effect of the more powerfully electron-releasing 4-dimethylamino group was probed. The required indole 32 was prepared via the semicarbazone 31 from N,N-dimethyl-2-methyl-3-nitroaniline by a modified Leimgruber-Batcho procedure (30). […] Nitration as before with NaNO3-TFA gave a complex mixture, from which the 5-nitro compound 34 was separated by chromatography. To achieve isolation of the required 7-nitro isomer 36, the remaining material was hydrolysed and the products chromatographed. The 5,7-dinitroindoline 35 was obtained in pure form, together with fractions that contained the presumed 7-nitroindoline. Acetylation of these combined fractions provided the desired material 36 in poor overall yield. Its structure was confirmed by nOe enhancement of the 5-proton upon irradiation of the dimethylamino signal. In the related 5-nitro isomer 34, irradiation of the dimethylamino signal had no effect on the integrated intensity of either aromatic proton signal. […] The series of compounds described in this latter series of experiments could be coupled to effector moieties, e.g. as described for compounds 10 and 21. [drawing 8] [drawing 9] [drawing 10]

Data set [4] is described as follows: Hydrolytic stability of 1-acyl-7-nitroindolines (reverse-phase HPLC). In kind it is physicochemical. The following applies: 62.5 mM Na phosphate, pH 12.01, 30° C. How it is done: The extent of hydrolysis was determined by reverse-phase HPLC analysis (mobile phase 25 mM Na phosphate, pH 6.0+10% MeOH, 1.5 ml/min). […] Quantification was based on peak heights compared to those of unhydrolysed controls (to). First-order rate constants for hydrolysis were obtained from single exponential fits to the data.
In addition to the release rate of the bioeffector species following flash irradiation, important properties of any caged compound include stability in aqueous solution and its extent of photolysis upon a single flash irradiation.
In this context, hydrolytic stability refers to the amide bond. […] The use of the free acids avoided analytical complications from the much faster cleavage of the ester group.

Data set [5] can be described thus: Quantum yield estimation by laser flash irradiation (347 nm). In kind it is physicochemical. How it is done:
Quantum yield estimation for 10. A solution of 1-(2-nitrophenylethyl) phosphate and 10 (each 0.50 mM) together with dithiothreitol (5 mM) was prepared in 25 mM ammonium phosphate, pH 7.0. Aliquots of the solution ([…]) in a 1-mm path length cell were each subjected to one 50-ns flash from a frequency-doubled ruby laser, that delivered 347 nm light with an average energy of 90 mJ (range 83-104 mJ). The combined irradiated solutions were analyzed by reverse-phase HPLC (mobile phase 25 mM Na phosphate, pH 6.0+40% MeOH, 1.5 ml/min). Retention times were 4.2 and 7.2 min for 10 and 1-(2-nitrophenylethyl) phosphate respectively. Quantification was based on peak heights compared to those of the unphotolyzed control. Extinction coefficients at 347 nm used to calculate the relative quantum yields were 2720 and 510 M^−1cm^−1 for 10 and 1-(2-nitrophenylethyl) phosphate respectively. Photolysis and product analysis for compounds 10 and 18.
The product quantum yield (Qp) for photolysis of the glutamate derivative 10 was determined by laser flash irradiation (347 nm) of a solution containing 10 and 1-(2-nitrophenyl)ethyl phosphate (16) (both 0.5 mM in pH 7 phosphate buffer). Conversions by a single flash (˜90 mJ) were 9.7 and 23% respectively (reverse-phase HPLC), leading to Qp=0.043 by comparison with the known value (16) (0.54) for the caged phosphate and after correction for the different extinction coefficients at the irradiation wavelength. Although the value of Qp is low, the relatively high extinction coefficient at ˜350 nm (˜2700 M^−1cm^−1) compared to that of “classical” 2-nitrobenzyl-type caged compounds (˜600 M^−1cm^−1) enables similar photolytic efficiency to be achieved.

Where [6] appears, read: 0.0748 mM in EtOH-25 mM Na phosphate.
Where [7] appears, read: 0.0896 mM in EtOH-25 mM Na phosphate.

With `COC(=O)Cc1cc(N=O)c2[nH]ccc2c1` [Compound 13, Methyl 7-nitrosoindole-5-acetate], the “Effect of photolysis by-product on glutamate receptors or resting membrane properties” value in the data set with glutamate ion channels (control experiments during and after photolysis) is given as “no adverse effect”.

Regarding `COC(=O)Cc1cc2c(c([N+](=O)[O-])c1)N(C(=O)CCCN)CC2` [Compound 21, Methyl 1-(4-aminobutanoyl)-7-nitroindoline-5-acetate], in data set [1], the “Extent of photolysis (conversion)” value stood at 38% and the “Stoichiometry of effector release upon photolysis” value is recorded as “stoichiometric release of GABA”.

As to `N[C@@H](CCC(=O)N1CCc2cc(CC(=O)O)cc([N+](=O)[O-])c21)C(=O)O` [Compound 18, 1-[S-(4-amino-4-carboxybutanoyl)]-7-nitroindoline-5-acetic acid], in data set [1], the “Extent of photolysis (conversion)” value is roughly 51% and the “Measured concentration of glutamate as % of value calculated from extent of photolysis” value is on record as 97-108%.

With `O=C(O)CCCC(=O)N1CCc2cc(Br)cc([N+](=O)[O-])c21` [Compound 11, 5-Bromo-1-glutaryl-7-nitroindoline], the “Extent of conversion (photolysis)” value in data set [2] (after 2 min irradiation, 0.5 mM each, 25 mM Na phosphate pH 7.0, 100 W xenon arc lamp) is 16%. Besides, in data set [2] (aqueous solution pH 7, atmospheric oxygen not excluded), the “Fold less efficient photolytic conversion than 8” value is listed as roughly 2.5 fold.

With `COc1c(C)cc([N+](=O)[O-])c2c1CCN2C(C)=O` [Compound 30, 1-Acetyl-4-methoxy-5-methyl-7-nitroindoline], the “Time required for half-maximal photolysis” value (from here on “Time required”) in data set [3] (setting [6]) is given as roughly 0.9 min. Also, the “Fold less efficient photolysis than 25” value in data set [3] (aqueous solution) is recorded as roughly 2 fold.

On to `COC(=O)Cc1cc([N+](=O)[O-])c(OC)c2c1N(C(C)=O)CC2` [Compound 24, Methyl 1-acetyl-4-methoxy-5-nitroindoline-7-acetate], for which the “Photolysis upon irradiation” value in data set [3] is given as “photostable”.

`COc1ccc([N+](=O)[O-])c2c1CCN2C(C)=O` [Compound 25, 1-Acetyl-4-methoxy-7-nitroindoline]: the “Time required” value in data set [3] (setting [6]) and in data set [3] (setting [7]) was roughly 0.4 min throughout. Also, the “Fold more efficient photolysis than 30” value in data set [3] (aqueous solution) is roughly 2 fold. For the same molecule, in data set [3] (aqueous solution, equal concentration), the “Fold more efficient photolysis than 16” value is given as roughly 3 fold.

In the case of `COC(=O)Cc1cc2c(c([N+](=O)[O-])c1)N(C(C)=O)CC2` [Compound 16, Methyl 1-acetyl-7-nitroindoline-5-acetate], in data set [3] (setting [7]), the “Time required” value was roughly 1.2 min.

Take `CC(=O)N1CCc2c(N(C)C)ccc([N+](=O)[O-])c21` [Compound 36, 1-acetyl-4-N,N-dimethylamino-7-nitroindoline]: the melting point was in the range of 177 to 178 °C. Also, in data set [3], the “Photolysis upon irradiation” value is “no detectable photolysis”.

Turning to `COC(=O)Cc1cc2c(c([N+](=O)[O-])c1)N(C(=O)CC[C@H](N)C(=O)O)CC2` [Compound 10, Methyl 1-[S-(4-amino-4-carboxybutanoyl)]-7-nitroindoline-5-acetate], the “Half-times for hydrolysis (amide hydrolysis)” value in data set [4] was 6 h. Further, in data set [5], the “Extinction coefficient at ~350 nm” value was roughly 2700 M⁻¹ cm⁻¹. The “Conversion by a single flash” value in data set [5] (347 nm laser flash, ~90 mJ, 0.5 mM, pH 7 phosphate buffer) is 9.7%. In addition, the “Product quantum yield (Qp)” value in data set [5] (347 nm, by comparison with caged phosphate, corrected for extinction coefficients) is given as 0.043. Further, in data set [5] (used to calculate relative quantum yields), the “Extinction coefficient at 347 nm” value was 2720 M⁻¹ cm⁻¹. Also, in data set [1], the “Extent of photolysis (conversion)” value is roughly 35%, the “Measured concentration of glutamate as % of value calculated from extent of photolysis” value is 90-94% and the “Stoichiometry of effector release upon photolysis” value is recorded as 1:1 stoichiometry. Further, in data set [1] (separate experiments), the “Efficiency of glutamate release upon photolysis, 10 vs the salt of its free acid” value is reported as “equal efficiency”. In addition, the “Effect on peak response to iontophoretic pulses of L-glutamate” value in the data set on glutamate ion channels (1 mM in bath, no photolysis) is on record as “did not diminish”. Besides, in the data set on glutamate ion channels (1 mM in bath, −65 mV, no photolysis), the “Activation of current in granule neurones by unphotolyzed caged compound” value is given as “no activation of current”. In addition, the “Time scale of L-glutamate release by flash photolysis” value in the data set with glutamate ion channels (1 ms light pulse) was “on the same time scale as the light pulse”. Besides, the “Rise of inward current after flash photolysis, exponential half-time (mean)” value with glutamate ion channels (1 ms xenon arc flash, Schott UG11 filter, n=8) was determined as 0.74 ms. Further, the “Fast decline of inward current, mean half-time” value in the data set with glutamate ion channels (after 1 ms xenon arc flash) turned out to be 2.9 ms. For the same molecule, the “Activity at glutamate ion channels of NMDA- and non-NMDA-activated types” value with glutamate ion channels (unphotolyzed compound) was “inactive”.
